We go through three substances from patent US20120004289A1, “ANNEXIN A11 AND ASSOCIATED GENES AS BIOMARKERS FOR CANCER” (The Johns Hopkins University, priority 2009, published 2012).

What all share (assay type): cell-based, human
Data set [1] deals with annexin A11 protein. Description: siRNA knockdown of annexin A11, immunoblot analysis in HEY cells. Particulars: after 2 days of siRNA transfection at 40 nM. The procedure: (A and B) Effect of silencing of annexin A11 using different siRNA. 2008 cells were treated with one (A1 or A2 or A3) or a combination (A1-3) of three stealth RNA against annexin A11 or nonspecific sequence (-Ctr) at the concentration of 40 nM or without treatment (Wt) for 3 days. Immunoblot analysis (A) and real-time PCR (B) were performed to confirm the suppression of annexin A11 mRNA and protein expressions in the cells. β-Actin was taken as an additional control for equal sampling in immunoblot analysis (A). The relative mRNA expression level of each sample was normalized to GAPDH expression and compared with -Ctr sample. *P<0.05 (B). (C) Dose-dependent silencing of annexin A11 by siRNA. 2008 cells were treated with RNAi (A1) at the indicated concentrations of 40, 20, 10, or 5 nM or -Ctr at the concentration of 40 nM or without treatment (Wt) for 3 days. Immunoblot analysis (C) was performed to check the annexin A11 expression levels in the cells. β-Actin was taken as an additional control for equal sampling. (D) Duration of silencing of annexin A11 using siRNA. 2008 or HEY cells were treated with RNAi (A1) or -Ctr at the concentration of 40 nM. […]
All stealth RNA interference (RNAi) sequences were purchased from Invitrogen. […] The optimized dose and duration of RNAi silencing were experimentally determined. […]
On the technique in general: A western blot detects proteins with antibodies after separation by electrophoresis.

Another data set deals with HEY cells. Nature of the data set: Cell proliferation assay (CCK-8) after annexin A11 siRNA, HEY cells. Particulars: siRNA 40 nM 3 days, compared with negative control transfectants, P<0.05. As to the method:
(§1) (A and B) Cell proliferation assay. 2008 (A) or HEY (B) cells were treated with RNAi (A1) or -Ctr at the concentration of 40 nM for 3 days, respectively, and then plated at 3000 viable cells per well into 96-well plates. Every 24 hours, one plate was subjected to assay by CCK-8 kit. The data in each time point are averaged values from eight replicates (P<0.05). (C) Colony formation assay. 2008 cells were treated in the same way as above for 3 days and then plated at 3000 viable cells per well into six-well plates. Six days after plating, cells were fixed with methanol and stained with 0.1% crystal violet and colonies were counted. The experiment was performed in six replicates (P<0.01). (D) Cell cytotoxicity assay. 2008 cells were treated in same way as above for 3 days and then plated at 3000 viable cells per well into 96-well plates. […]
(§2) Cell Counting Kit-8 (CCK-8; Dojindo, Gaithersburg, Md.) was used in cell proliferation assay. […] Cells were then collected by trypsinization, counted by using a hemacytometer with trypan blue dye, and plated at 3000 viable cells per well into 96-well tissue culture plates in a final volume of 100 μl. […] The absorbance at 450 nm was measured with a microplate reader (EL 312e; Biotek Instruments, Winooski, Vt.). […]

Data set [2] has as its system 2008 cells. Description: Cell proliferation assay (CCK-8) after annexin A11 siRNA, 2008 cells. Particulars: siRNA 40 nM 3 days, compared with negative control transfectants, P<0.05. As to the method: as §1, §2
The subject of another data set is annexin A11 mRNA. Nature of the data set: siRNA knockdown of annexin A11, real-time PCR of mRNA in 2008 cells. Particulars: siRNA 40 nM, 3 days, compared with negative control cells (-Ctr), P<0.05. The procedure:
(§3) (A and B) Effect of silencing of annexin A11 using different siRNA. 2008 cells were treated with one (A1 or A2 or A3) or a combination (A1-3) of three stealth RNA against annexin A11 or nonspecific sequence (-Ctr) at the concentration of 40 nM or without treatment (Wt) for 3 days. Immunoblot analysis (A) and real-time PCR (B) were performed to confirm the suppression of annexin A11 mRNA and protein expressions in the cells. β-Actin was taken as an additional control for equal sampling in immunoblot analysis (A). The relative mRNA expression level of each sample was normalized to GAPDH expression and compared with -Ctr sample. *P<0.05 (B). (C) Dose-dependent silencing of annexin A11 by siRNA. 2008 cells were treated with RNAi (A1) at the indicated concentrations of 40, 20, 10, or 5 nM or -Ctr at the concentration of 40 nM or without treatment (Wt) for 3 days. Immunoblot analysis (C) was performed to check the annexin A11 expression levels in the cells. β-Actin was taken as an additional control for equal sampling. (D) Duration of silencing of annexin A11 using siRNA. 2008 or HEY cells were treated with RNAi (A1) or -Ctr at the concentration of 40 nM. Immunoblot analysis was performed to analyze the annexin A11 expression levels in these cells.
All stealth RNA interference (RNAi) sequences were purchased from Invitrogen. The three stealth RNAi that targeted different annexin A11 sequences were as follows: A1, […]; A2, […]; and A3, […]. The stealth RNAi negative control duplex (medium GC) was used as a negative control. […] The optimized dose and duration of RNAi silencing were experimentally determined. […]
(Invitrogen) according to the manufacturer's instructions. […] An experiment consisted of triplicate amplification reactions for each gene product being analyzed. […] The cycle threshold number (CT) was determined for each PCR using iQ5 Real-time PCR Detection System (Bio-Rad). […] Results are expressed as relative abundance of a specific mRNA between control and experimental sample (fold change, mean±SD).
For orientation: Real-time PCR tracks product formation cycle by cycle.

The test system of data set [3] is 2008 cells. Nature of the data set: Cell colony formation assay after annexin A11 siRNA, 2008 cells. Particulars: siRNA 40 nM 3 days, colonies counted six days after plating, P<0.01. The procedure:
as §1
2008 and HEY cells were cultured in T25 flasks and transfected with A1 or negative control for 3 days. Cells were then collected, counted, and plated at 3000 viable cells per well into six-well plates. Six days after plating, cells were fixed with methanol and stained with 0.1% crystal violet, and colonies were counted under the light microscope. […]

Data set [4] deals with annexin A11 protein. Nature of the data set: siRNA knockdown of annexin A11, immunoblot analysis in 2008 cells. Particulars: for annexin A11 protein expression (immunoblot): siRNA 40 nM, compared with strong expression in -Ctr and Wt cells. As to the method:
as §3
All stealth RNA interference (RNAi) sequences were purchased from Invitrogen. The three stealth RNAi that targeted different annexin A11 sequences were as follows: A1, […]; A2, […]; and A3, […]. The stealth RNAi negative control duplex (medium GC) was used as a negative control. Transfection of annexin A11-specific siRNA and the negative control was performed using Lipofectamine 2000 (Invitrogen). The optimized dose and duration of RNAi silencing were experimentally determined. Briefly, cancer cells were seeded the day before siRNA transfection in either six-well plates or T25 flasks and were 30% to 50% confluent at the time of transfection. Stealth RNAi and Lipofectamine were diluted in Opti-MEM I Medium (Invitrogen), and 40 nM of the siRNA duplex was used in each transfection mixture. 2008 or HEY cells were transfected with one annexin A11-specific siRNA (A1 or A2 or A3) or a combination of three different siRNA at the equal amount (A1-3) or negative control for 2 to 3 days and were then harvested for the downstream experiments.
The denatured samples were electrophoresed on 4% to 15% gradient SDS-PAGE gels (Bio-Rad), electroblotted on nitrocellulose membranes (Bio-Rad), and probed with the respective antibodies against different targets. Both anti-annexin A11 (1:10,000) and anti-annexin A5 (1:2000) monoclonal antibodies were purchased from BD Biosciences (San Jose, Calif.). Rabbit anti-human HMOX1 polyclonal antibody (1:500) and mouse polyclonal anti-LY6D (1:500) were purchased from GenWay Biotech (San Diego, Calif.) and Novus Biologicals (Littleton, Colo.), respectively. The bound antibodies were visualized with horseradish peroxidase-conjugated secondary antibodies and enhanced chemiluminescence (Amersham, Pittsburgh, Pa.). Actin in the corresponding cell lysates was used as an additional control to show equal loading.

As to “A1: stealth RNAi (Invitrogen) targeting annexin A11, GGCCGUGGUGAAAUGUCUCAAGAAU (chemistry not given here)”, the “duration of silencing of annexin A11 protein expression” value is not below 7 days with annexin A11 protein [1] and not below 10 days in the data set with annexin A11 protein [4] (after 3 days of siRNA transfection at 40 nM). In addition, the “decrease in rate of proliferation” value is 34% with HEY cells and 40% in the data set on 2008 cells [2]. Further, the “down-regulation in annexin A11 mRNA expression levels” value (from here on “down-regulation”) in the data set on annexin A11 mRNA was “three-fold to four-fold”. For the same substance, in the data set on 2008 cells [3], the colony formation ability result was “greatly damaged”. The “silencing effect on annexin A11 expression by concentration (immunoblot)” value with annexin A11 protein [4] (5 to 40 nM, 3 days) is reported as “dose-dependent silencing effect”. In addition, the “annexin A11 protein expression (immunoblot)” value in the data set on annexin A11 protein [4] (3 days) is recorded as “barely detectable”.

On to “A3: stealth RNAi (Invitrogen) targeting annexin A11, GGGAUUACCGGAAGAUUCUGCUGAA (chemistry not given here)”, for which the “down-regulation” value with annexin A11 mRNA is “three-fold to four-fold”. Besides, the “annexin A11 protein expression (immunoblot)” value with annexin A11 protein [4] (3 days) is recorded as “barely detectable”.

As for “A2: stealth RNAi (Invitrogen) targeting annexin A11, CCUCCUGGACAUCAGAUCAGAGUAU (chemistry not given here)”, the “down-regulation” value with annexin A11 mRNA is given as “three-fold to four-fold”. Besides, the “annexin A11 protein expression (immunoblot)” value in the data set with annexin A11 protein [4] (3 days) is listed as “barely detectable”.
